What was measured:
PSMA(+) PC3 PIP cells = experiment: Cell uptake, cell surface binding and internalization in PSMA(+) PC3 PIP cells; type: cell-based, human; conditions: for Blockade PC3 PIP: ZJ43 10 μM; for total uptake within the PSMA(+) PC3 PIP cells: 1 h to 24 h
[1] = tested on: PSMA(+) tumors and normal tissues; experiment: Self-blocking (receptor blockade) biodistribution; type: in vivo, mouse; conditions: at 10-fold kidney blockade
Description: Development of receptor blockade for normal organs. The blocking effect of 1 was quantified in normal tissues using ^177Lu-1. A drastic reduction of renal uptake was observed while maintaining high uptake in PSMA(+) tumors (FIG. 12). […] Blocking strategies. […] These daughters, once formed, are unlikely to associate with the chelate construct due to high atomic recoil-energy as a result of α-decay. Without wishing to be bound to any one particular theory, it is thought that acute salivary gland toxicity caused by ^225Ac-PSMA-617 is most likely due to PSMA-based internalization of the agent followed by daughter release in striated duct or acini. Both biodistribution data and α-camera imaging will be used to interpret the data. Different pharmacologic agents will be evaluated to avoid renal and salivary gland radio toxicity. […]

[2] = tested on: PSMA(+) PC3 PIP and PSMA(−) PC3 flu tumor xenografts; experiment: Biodistribution of 177Lu compounds (Example 5)
PSMA(−) PC3 flu cells = experiment: Cell uptake in PSMA(−) PC3 flu cells; type: cell-based, human
PSMA+ PC3 PIP tumors = experiment: Radiopharmaceutical therapy in PC3 PIP flank tumor growth delay model; type: in vivo, NOD/SCID mice; conditions: for Tumor disappear (number of mice): week 8 post-treatment; for Average final body weight: single i.v. dose 111 MBq (3 mCi)
Description: (§1) A pilot treatment study using NOD/SCID mice (n=10 per group) bearing PSMA+ PC3 PIP tumors with a single intravenous dose of 111 MBq (3 mCi) of agents ^177Lu-PSMA-617, ^177Lu-1, ^177Lu-3 and ^177Lu-5 and the control group (with saline treatment) were performed (Table 8). Volume of the all control group mice reached >5-fold of their initial tumor volume within 14 days. Mouse euthanized for treated group within 4 weeks of post-injection was mainly due to sudden body weight loss and not related to tumor growth. […] The difference among treatment groups was statistically significant (P=0.002) by the log-rank test compared to the untreated group. […] After 8-weeks, three mice from each treated group were used for detailed blood analysis and necropsy study. All animals underwent radiotherapy study had normal creatinine (0.3-0.4 mg/dL) and blood urea nitrogen levels. […] Additionally, a significant lowering of platelet for all three treated mice from ^177Lu-PSMA-617 compared control group and other treated groups.
Median survival for the ^177Lu-PSMA-617 was 133 days vs. 234 days for ^177Lu-1.
The remaining treated mice survived tumor-free for 10 months and were evaluated for toxicity.
(§2) Antitumor efficacy studies were performed in PC3 PIP flank tumor growth delay model to evaluate the therapeutic efficacy of a single dose intravenous injection of ^177Lu-L1, ^177Lu-L3, ^177Lu-L5 and ^177Lu-PSMA-617 vs. saline. This was a head-to-head comparison study and same batch of tumor-bearing mice and radioactivity. The study was commenced 14-18 days post-inoculation of the xenografts, when all the mice had tumor volume of about ˜60-85 mm^3 (Table 8). All the living mice were monitored for 8 weeks to monitor the growth delay. Mice body weight and tumor volume were monitored every 3 days throughout the experiment. Endpoint criteria defined by the institute ACUC was weight loss≥15%, a tumor volume>1800 mm^3, active ulceration of the tumor or abnormal behavior indicating pain or unease. After 8-weeks, three mice from each group were submitted for detail necropsy and blood analysis. Mice group treated with ^177Lu-1 and ^177Lu-PSMA-617 were continued to monitor until the endpoint. These definitions were also used for Kaplan-Meier analysis. The probability of reaching 5 times the initial tumor volume was characterized using Kaplan-Meier curves, and comparison was performed using the log-rank test. The formula used for calculation of tumor volume was V=width^2×length/2. Toxicity of the ^177Lu-treatment groups after 8-weeks and in healthy CD-1 (n=3) mice treated with 111 MBq was evaluated by pathologic examination at the Johns Hopkins Pathology Core facility with serum metabolic panel, blood counts, and full necropsy including detailed histopathology of kidneys, salivary glands and lacrimal glands.

[3] = Blood analysis and necropsy after radiotherapy; type: in vivo, NOD/SCID mice; conditions: one-year post-treatment in tumor-free mice, 111 MBq
PC3-ML-Luc-PSMA = experiment: Treatment study in micrometastatic PC3-ML-Luc-PSMA model; type: in vivo, mouse; conditions: 37 MBq
Description: (middle) Changes in bodyweight during the treatment study. (bottom) Kaplan-Meier survival curve for treatment study in micrometastatic PC3-ML-Luc-PSMA model, median survival for 51 days (untreated) vs 52 days for ^177Lu-PSMA-617 (37 MBq) and 56 days for 225Ac-1 (37 kBq) and 79 days for 225Ac-1 (74 kBq);

[4] = Blood analysis and necropsy after radiotherapy; type: in vivo, NOD/SCID mice
Description: as §1
Significant and concerning changes were identified in testes, and lacrimal grands primarily (FIG. 25) for all treated groups. […] Parotid glands, usually adjacent to exorbital lacrimal gland, are conspicuously spared and there were mild changes in the group treated ^177Lu-PSMA-617. […] T lymphoblastic lymphoma is accelerated by irradiation and some carcinogens, and is associated with interactions of endogenous retroviruses/retroelements in NOD/SCID mouse strains. […] The cells are large up to 25 μm, with very large nuclei (for a mouse) usually 2-3 nucleoli, and a high mitotic rate. Testis and lacrimal gland degenerative changes indicate that this animal did receive a treatment similar to other treated mice.
as §2

[5] = 111 MBq (3 mCi), after eight weeks, n=3

Row | Compound | Cell uptake PC3 PIP (PSMA(+) PC3 PIP cells; 1 h) | PC3 PIP cell Int (internalization) (PSMA(+) PC3 PIP cells; 1 h) | Blockade PC3 PIP (PSMA(+) PC3 PIP cells; 1 h) | total uptake within the PSMA(+) PC3 PIP cells (PSMA(+) PC3 PIP cells) | Cell uptake PC3 PIP (PSMA(+) PC3 PIP cells; 2 h) | PC3 PIP, line without name (position of cell internalization) (PSMA(+) PC3 PIP cells; 2 h) | Cell uptake PC3 PIP (PSMA(+) PC3 PIP cells; 4 h) | PC3 PIP cell int (internalization) (PSMA(+) PC3 PIP cells; 4 h) | Cell uptake PC3 PIP (PSMA(+) PC3 PIP cells; 24 h) | PC3 PIP cell int (internalization) (PSMA(+) PC3 PIP cells; 24 h) | Cell uptake PC3 flu (PSMA(−) PC3 flu cells; 1 h) | Cell uptake PC3 flu (PSMA(−) PC3 flu cells; 2 h) | Cell uptake PC3 flu (PSMA(−) PC3 flu cells; 4 h) | Cell uptake PC3 flu (PSMA(−) PC3 flu cells; 24 h) | Median survival After 8 weeks post-treatment (PSMA+ PC3 PIP tumors; 111 MBq) | Tumor disappear (number of mice) (PSMA+ PC3 PIP tumors; 111 MBq) | Average final body weight (PSMA+ PC3 PIP tumors) | further results
1 | O=C([O-])CN1CCN(CC(=O)[O-])CCN(C(CCC(=O)NCCCCC(=O)N(CCCC[C@H](NC(=O)N[C@@H](CCC(=O)O)C(=O)O)C(=O)O)Cc2ccc(Br)cc2)C(=O)O)CCN(CC(=O)[O-])CC1.[177Lu+3] (stereo partly shown) [^177Lu-L9] | – | – | – | – | – | – | – | – | – | – | – | – | – | – | – | – | – | cell uptake and internalization (PSMA(+) PC3 PIP cells): ~70%; effect of self-blockade on tumor uptake [1]: significant tumor uptake blockade; Kidney uptake ([2]; 2 h): 149.7±32.0 % ID/g; Kidney uptake ([2]; 24 h (so in the source)): 5.9±2.7 % ID/g; fold renal clearance ([2]; within 24 h): ~30 fold
2 | O=C([O-])CN1CCN(CC(=O)[O-])CCN(CC(=O)NCCCCC(=O)N(CCCC[C@H](NC(=O)N[C@@H](CCC(=O)O)C(=O)O)C(=O)O)Cc2ccc(Br)cc2)CCN(CC(=O)[O-])CC1.[177Lu+3] [^177Lu-L1] | 32.1 ± 0.1 % incubated dose per 1 x 10^6 cells | 18.8 ± 0.8 % incubated dose per 1 x 10^6 cells | 0.2 ± 0.0 % incubated dose per 1 x 10^6 cells | ~30 % of the incubated dose | 36.7 ± 0.5 % incubated dose per 1 x 10^6 cells | 22.0 ± 0.6 % incubated dose per 1 x 10^6 cells | 39.1 ± 0.5 % incubated dose per 1 x 10^6 cells | 26.6 ± 1.2 % incubated dose per 1 x 10^6 cells | 46.2 ± 0.2 % incubated dose per 1 x 10^6 cells | 24.6 ± 0.2 % incubated dose per 1 x 10^6 cells | 0.2 ± 0.0 % incubated dose per 1 x 10^6 cells | 0.1 ± 0.0 % incubated dose per 1 x 10^6 cells | 0.1 ± 0.0 % incubated dose per 1 x 10^6 cells | 0.2 ± 0.1 % incubated dose per 1 x 10^6 cells | Not reached | disappear 7 | 26.1 ± 1.4 gram | Mouse death (number of mice) (PSMA+ PC3 PIP tumors; 111 MBq, up to week 8 post-treatment): Death 1; radiation nephropathy at necropsy [3]: did not reveal any radiation nephropathy
3 | O=C([O-])CN1CCN(CC(=O)[O-])CCN(CC(=O)NCC2CCC(C(=O)N[C@@H](Cc3ccc4ccccc4c3)C(=O)NCCCC[C@H](NC(=O)N[C@@H](CCC(=O)O)C(=O)O)C(=O)O)CC2)CCN(CC(=O)[O-])CC1.[177Lu+3] (stereo partly shown) [^177Lu-PSMA-617, reference compound] | 42.2 ± 0.80 % incubated dose per 1 x 10^6 cells | 18.8 ± 1.2 % incubated dose per 1 x 10^6 cells | 0.1 ± 0.0 % incubated dose per 1 x 10^6 cells | ~40 % of the incubated dose | 44.6 ± 1. % incubated dose per 1 x 10^6 cells | 21.1 ± 0.9 % incubated dose per 1 x 10^6 cells | 47.6 ± 1.13 % incubated dose per 1 x 10^6 cells | 26.1 ± 1.0 % incubated dose per 1 x 10^6 cells | 54.2 ± 0.21 % incubated dose per 1 x 10^6 cells | 26.4 ± 0.8 % incubated dose per 1 x 10^6 cells | 0.1 ± 0.01 % incubated dose per 1 x 10^6 cells | 0.1 ± 0.0 % incubated dose per 1 x 10^6 cells | 0.1 ± 0.06 % incubated dose per 1 x 10^6 cells | 0.1 ± 0.01 % incubated dose per 1 x 10^6 cells | Not reached | disappear 5 | 24.6 ± 3.6 gram | median survival (PC3-ML-Luc-PSMA): 52 days; Tumors above stated relative tumor growth after week 8 post-treatment (Vt/V0) (PSMA+ PC3 PIP tumors; 111 MBq): one tumor > 4; median survival (PSMA+ PC3 PIP tumors; 111 MBq, followed to predefined end-point): 133 days; Albumin [4, 5]: 2.9 ± 0.2 g/dL; Blood urea nitrogen [4, 5]: 23.3 ± 2.5 mg/dL; Hematocrit [4, 5]: 42.9 ± 4.5%; Hemoglobin [4, 5]: 12.8 ± 1.0 g/dL; Lymphocytes [4, 5]: 0.7 ± 0.1 K/μL; Mean Corpuscular Value(MCV) [4, 5]: 52.2 ± 1.6 fL; Neutrophils [4, 5]: 3.5 ± 3.8 K/μL; Platelets [4, 5]: 916.0 ± 141.6 K/μL; Red blood cells [4, 5]: 8.2 ± 0.7 M/μL; Total protein [4, 5]: 5.5 ± 0.5 g/dL; White blood cells [4, 5]: 5.05 ± 4.1 K/μL; H&E pathology of testis ([4]; 111 MBq, after 8 weeks): most significant changes in testis; neutrophil counts ([4]; 111 MBq, after 8 weeks): up to 3.5±3.8 K/mL; Kidney uptake ([2]; 3 h post-injection): 9.81±6.54 % ID/g

Source: US11478558B2, “Prostate-specific membrane antigen targeted high-affinity agents for endoradiotherapy of prostate cancer” (The Johns Hopkins University, priority 2017, dated 2022)
